Reference: the supplement of paper PMC11208160

assay: recombinant UMI read abundance after kanamycin selection (control-corrected) (log10(CPM+1)); higher = more efficient recombination; extreme values may be limits of the assay; sequences stand for … in AGTGCAGAGAAAATCGGCCAGTTTTCTCTGCCTGCAGTCCGCATGCCGTGGGACCCCTTGGGTTCTAACCTGTTGCCTAGATTTATGCAGCGGACTGCCTTTCTCCCAAAGTGATAAACCGG…AGGTTGGTTTCACT; site = the 11-nt donor
Summary of the method: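 Pooled Escherichia coli screen of donor and donor-binding-loop pairs for the IS621 bridge recombinase. Each pair sits with a 12-nt UMI on a plasmid carrying a promoterless kanamycin gene. The library was co-electroporated with a target plasmid encoding a fixed target and T7-inducible recombinase, then plated with IPTG (0.07 mM) plus kanamycin, or unselected, each in two replicates. Recombinant UMIs were PCR-amplified across the donor–target junction and sequenced. Counts became CPM, averaged over replicates, scaled by control-derived factors and reported as log10(CPM+1).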

Row | Sequence | recombinant UMI read abundance (log10)
1 | CGATCATCATGGACCGGTTTTCCCGGTAATCCGTATTTGCT (site CGATTTTCTAG) | 0
2 | CGATCATCATGGACCGGTTTTCCCGGTAATCCGTATTTGCT (site CGCCCATCTAG) | 0.133
3 | CGATCATCATGGACCGGTTTTCCCGGTAATCCGTATTTGCT (site CGCTAATCTAG) | 0
4 | CGATCATCATGGACCGGTTTTCCCGGTAATCCGTATTTGCT (site CGCTCAACTAG) | 0
5 | CGATCATCATGGACCGGTTTTCCCGGTAATCCGTATTTGCT (site CGCTCATCTAC) | 0.00488
6 | CGATCATCATGGACCGGTTTTCCCGGTAATCCGTATTTGCT (site CGCTCATCTAG) | 0.295
7 | CGATCATCATGGACCGGTTTTCCCGGTAATCCGTATTTGCT (site CGCTCATCTCG) | 0
8 | CGATCATCATGGACCGGTTTTCCCGGTAATCCGTATTTGCT (site CGCTCCTCTAG) | 0
9 | CGATCATCATGGACCGGTTTTCCCGGTAATCCGTATTTGCT (site CGGGCATCTAG) | 0
10 | CGATCATCATGGACCGGTTTTCCCGGTAATCCGTATTTGCT (site CGGTCAGCTAG) | 0.0144
11 | CGATCATCATGGACCGGTTTTCCCGGTAATCCGTATTTGCT (site CGGTCATCTAA) | 0.0171
12 | CGATCATCATGGACCGGTTTTCCCGGTAATCCGTATTTGCT (site CGGTCATCTAG) | 0
13 | CGATCATCATGGACCGGTTTTCCCGGTAATCCGTATTTGCT (site CGGTCATCTTG) | 0.00419
14 | CGATCATCATGGACCGGTTTTCCCGGTAATCCGTATTTGCT (site CGGTCTTCTAG) | 0.0105
15 | CGATCATCATGGACCGGTTTTCCCGGTAATCCGTATTTGCT (site CGGTTATCTAG) | 0
16 | CGATCATCATGGACCGGTTTTCCCGGTAATCCGTATTTGCT (site CGTACATCTAG) | 1.61
17 | CGATCATCATGGACCGGTTTTCCCGGTAATCCGTATTTGCT (site CGTTCACCTAG) | 0
18 | CGATCATCATGGACCGGTTTTCCCGGTAATCCGTATTTGCT (site CGTTCATCTAG) | 1.53
19 | CGATCATCATGGACCGGTTTTCCCGGTAATCCGTATTTGCT (site CGTTCATCTAT) | 0
20 | CGATCATCATGGACCGGTTTTCCCGGTAATCCGTATTTGCT (site CGTTCATCTGG) | 0
21 | CGATCATCATGGACCGGTTTTCCCGGTAATCCGTATTTGCT (site CGTTCGTCTAG) | 0.0117
22 | CGATCATCATGGACCGGTTTTCCCGGTAATCCGTATTTGCT (site CGTTGATCTAG) | 0
23 | CGATCATCATGGACCGGTTTTCCCGGTAATCCGTATTTGCT (site CTACCATCTAG) | 1.69

Row | Sequence | recombinant UMI read abundance (log10)
24 | CGATCATCATGGACCGGTTTTCCCGGTAATCCGTATTTGCT (site CTATAATCTAG) | 1.08
25 | CGATCATCATGGACCGGTTTTCCCGGTAATCCGTATTTGCT (site CTATCAACTAG) | 0
26 | CGATCATCATGGACCGGTTTTCCCGGTAATCCGTATTTGCT (site CTATCATCTAC) | 0.00862
27 | CGATCATCATGGACCGGTTTTCCCGGTAATCCGTATTTGCT (site CTATCATCTAG) | 1.22
28 | CGATCATCATGGACCGGTTTTCCCGGTAATCCGTATTTGCT (site CTATCATCTCG) | 0.0222
29 | CGATCATCATGGACCGGTTTTCCCGGTAATCCGTATTTGCT (site CTATCCTCTAG) | 0
30 | CGATCATCATGGACCGGTTTTCCCGGTAATCCGTATTTGCT (site CTCTCATCTAG) | 0.961
31 | CGATCATCATGGACCGGTTTTCCCGGTAATCCGTATTTGCT (site GAATCATCTAG) | 0
32 | CGATCATCATGGACCGGTTTTCCCGGTAATCCGTATTTGCT (site GGAACATCTAG) | 0.00516
33 | CGATCATCATGGACCGGTTTTCCCGGTAATCCGTATTTGCT (site GGATCACCTAG) | 0.00443
34 | CGATCATCATGGACCGGTTTTCCCGGTAATCCGTATTTGCT (site GGATCATCTAG) | 0.606
35 | CGATCATCATGGACCGGTTTTCCCGGTAATCCGTATTTGCT (site GGATCATCTAT) | 0.0067
36 | CGATCATCATGGACCGGTTTTCCCGGTAATCCGTATTTGCT (site GGATCATCTGG) | 0
37 | CGATCATCATGGACCGGTTTTCCCGGTAATCCGTATTTGCT (site GGATCGTCTAG) | 0.00614
38 | CGATCATCATGGACCGGTTTTCCCGGTAATCCGTATTTGCT (site GGATGATCTAG) | 0
39 | CGATCATCATGGACCGGTTTTCCCGGTAATCCGTATTTGCT (site GGTTCATCTAG) | 0
40 | CGATCATCATGGACCGGTTTTCCCGGTAATCCGTATTTGCT (site TGACCATCTAG) | 1.21
41 | CGATCATCATGGACCGGTTTTCCCGGTAATCCGTATTTGCT (site TGATAATCTAG) | 0
42 | CGATCATCATGGACCGGTTTTCCCGGTAATCCGTATTTGCT (site TGATCAACTAG) | 0
43 | CGATCATCATGGACCGGTTTTCCCGGTAATCCGTATTTGCT (site TGATCATCTAC) | 0.00378
44 | CGATCATCATGGACCGGTTTTCCCGGTAATCCGTATTTGCT (site TGATCATCTAG) | 0.864
45 | CGATCATCATGGACCGGTTTTCCCGGTAATCCGTATTTGCT (site TGATCATCTCG) | 0.00793
46 | CGATCATCATGGACCGGTTTTCCCGGTAATCCGTATTTGCT (site TGATCCTCTAG) | 0

Row | Sequence | recombinant UMI read abundance (log10)
47 | CGATCATCATGGACCGGTTTTCCCGGTAATCCGTATTTGCT (site TGCTCATCTAG) | 0
48 | CGATCATCATGGACCGGTTTTCCCGGTAATCCGTATTTGCT (site TTATCATCTAG) | 1.88
49 | CGATCATCATGGACCGGTTTTCCCGGTAATCCGTATTTGTA (site CGATCATCTAG) | 0
50 | CGATCATCATGGACCGGTTTTCCCGGTAATCCGTATTTGTA (site CGATCATCTTA) | 2.57
51 | CGATCATCATGGACCGGTTTTCCCGGTAATCCGTATTTGTT (site CGATCATCTAA) | 1.4
52 | CGATCATCATGGACCGGTTTTCCCGGTAATCCGTATTTGTT (site CGATCATCTAC) | 0
53 | CGATCATCATGGACCGGTTTTCCCGGTAATCCGTATTTGTT (site CGATCATCTAG) | 0
54 | CGATCATCATGGACCGGTTTTCCCGGTAATCCGTATTTGTT (site CGATCATCTAT) | 0.00529
55 | CGATCCACATGGACCGGTTTTCCCGGTAATCCGTATTTGCT (site CGATCATCTAG) | 0
56 | CGATCCACATGGACCGGTTTTCCCGGTAATCCGTATTTGCT (site CGATCCACTAG) | 2.75
57 | CGATCCACATGGACCGGTTTTCCCGGTAATCCGTATTTGTT (site CGATCAACTAA) | 0.00541
58 | CGATCCACATGGACCGGTTTTCCCGGTAATCCGTATTTGTT (site CGATCCACTAA) | 2.11
59 | CGATCCACATGGACCGGTTTTCCCGGTAATCCGTATTTGTT (site CGATCGACTAA) | 0.00891
60 | CGATCCACATGGACCGGTTTTCCCGGTAATCCGTATTTGTT (site CGATCTACTAA) | 0.00733
61 | CGATCGTCATGGACCGGTTTTCCCGGTAATCCGTATTTGCC (site CGATCATCTAG) | 0
62 | CGATCGTCATGGACCGGTTTTCCCGGTAATCCGTATTTGCC (site CGATCGTCTGG) | 1.05
63 | CGATCTTCATGGACCGGTTTTCCCGGTAATCCGTATTTGCT (site CGATCATCTAG) | 0
64 | CGATCTTCATGGACCGGTTTTCCCGGTAATCCGTATTTGCT (site CGATCCTCTAG) | 0.00985
65 | CGATCTTCATGGACCGGTTTTCCCGGTAATCCGTATTTGCT (site CGATCGTCTAG) | 0.00569
66 | CGATCTTCATGGACCGGTTTTCCCGGTAATCCGTATTTGCT (site CGATCTTCTAG) | 0.601
67 | CGATGTGCATGGACCGGTTTTCCCGGTAATCCGTATTTGGC (site CGATGTGCTGC) | 3.02
68 | CGATGTTCATGGACCGGTTTTCCCGGTAATCCGTATTTGTC (site CGATGTTCTGA) | 2.98
